Read-outs that look alike come from different tables or passages of the source.
How the values were obtained:
[1] = test system: E. faecium ATCC19434; assay: Sensitivity test (agar dilution); assay type: cell-based, Enterococcus faecium; conditions: Enterococcus faecium, E. faecium ATCC19434
In short: (§1)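 MICs were determined by agar dilution on Mueller Hinton agar containing twofold serial dilutions of single drugs or drug combinations. Overnight 37° C cultures were suspended in gelatin-buffered saline at about 10^6 CFU/ml, and about 5 μl was spot-inoculated. FIC index was calculated from MICs; ≤1 denotes enhancement.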

[2] = test system: E. coli ML1410 RP4; assay: microbe, parasite or virus in culture; assay type: cell-based, Escherichia coli; conditions: Escherichia coli, E. coli ML1410 RP4
In short: as §1

[3] = test system: S. aureus MS94088 (hetero-MRSA); assay: Sensitivity test (agar dilution); assay type: cell-based, Staphylococcus aureus; conditions: Staphylococcus aureus, MRSA, S. aureus MS94088 (hetero-MRSA)
In short: as §1

[4] = test system: S. aureus 209P; assay: Sensitivity test (agar dilution); assay type: cell-based, Staphylococcus aureus; conditions: Staphylococcus aureus, 209P, S. aureus 209P
In short: as §1

[5] = test system: E. aerogenes ATCC13048; assay: Sensitivity test (agar dilution); assay type: cell-based, Enterobacter aerogenes; conditions: Klebsiella aerogenes, E. aerogenes ATCC13048
In short: as §1

[6] = test system: P. mirabiris GN2425; assay: Sensitivity test (agar dilution); assay type: cell-based, Proteus mirabilis; conditions: Proteus mirabilis, P. mirabiris GN2425
In short: as §1

[7] = test system: M. catarrhalis ATCC8176; assay: Sensitivity test (agar dilution); assay type: cell-based, Moraxella catarrhalis; conditions: Moraxella catarrhalis, M. catarrhalis ATCC8176
In short: as §1

[8] = test system: M. catarrhalis ATCC25238; assay: Sensitivity test (agar dilution); assay type: cell-based, Moraxella catarrhalis; conditions: Moraxella catarrhalis, M. catarrhalis ATCC25238
In short: as §1

[9] = test system: B. subtilis ATCC6633; assay: Sensitivity test (agar dilution); assay type: cell-based, Bacillus subtilis; conditions: Bacillus subtilis, B. subtilis ATCC6633
In short: as §1

[10] = test system: C. freundii GN346; assay: Sensitivity test (agar dilution); assay type: cell-based, Citrobacter freundii; conditions: Citrobacter freundii, C. freundii GN346
In short: as §1

[11] = test system: S. marcescens X 100; assay: Sensitivity test (agar dilution); assay type: cell-based, Serratia marcescens; conditions: Serratia marcescens, S. marcescens X 100
In short: as §1

[12] = test system: S. marcescens GN6473; assay: Sensitivity test (agar dilution); assay type: cell-based, Serratia marcescens; conditions: Serratia marcescens, S. marcescens GN6473
In short: as §1

[13] = test system: S. maltophilia IID1275; assay: Sensitivity test (agar dilution); assay type: cell-based, Stenotrophomonas maltophilia; conditions: Stenotrophomonas maltophilia, S. maltophilia IID1275
In short: as §1

[14] = Concomitant (BIPM:SM = 1:1), read-out: MIC concomitant
[15] = drug alone, read-out: MIC alone

## C[C@@H](O)[C@H]1C(=O)N2C(C(=O)[O-])=C(SC3Cn4cnc[n+]4C3)[C@H](C)[C@H]12 (some centres unmarked) [BIPM, biapenem]
[1]; ATCC19434, Concomitant (BIPM:SM = 1:1), read-out: MIC concomitant
  MIC: 0.25 µg/mL
[1]; ATCC19434, drug alone, read-out: MIC alone
  MIC: 16 µg/mL
[2]; ML1410RP4, read-out: MIC alone, drug alone
  MIC: 0.25 µg/mL
[2]; ML1410RP4, read-out: MIC concomitant, Concomitant (BIPM:SM = 1:1)
  MIC: 0.125 µg/mL
[3]; [14]
  MIC: 0.25 µg/mL
[3]; [15]
  MIC: 4 µg/mL
[4]; [14]
  MIC: 0.008 µg/mL
[4]; [15]
  MIC: 0.031 µg/mL
[5]; ATCC13048, Concomitant (BIPM:SM = 1:1), read-out: MIC concomitant
  MIC: 0.063 µg/mL
[5]; ATCC13048, drug alone, read-out: MIC alone
  MIC: 0.125 µg/mL
[6]; GN2425, Concomitant (BIPM:SM = 1:1), read-out: MIC concomitant
  MIC: 0.125 µg/mL
[6]; GN2425, drug alone, read-out: MIC alone
  MIC: 0.25 µg/mL
[7]; ATCC8176, Concomitant (BIPM:SM = 1:1), read-out: MIC concomitant
  MIC: ≤ 0.002 µg/mL
[7]; ATCC8176, drug alone, read-out: MIC alone
  MIC: 0.031 µg/mL
[8]; ATCC25238, Concomitant (BIPM:SM = 1:1), read-out: MIC concomitant
  MIC: ≤ 0.002 µg/mL
[8]; ATCC25238, drug alone, read-out: MIC alone
  MIC: 0.016 µg/mL
[9]; ATCC6633, Concomitant (BIPM:SM = 1:1), read-out: MIC concomitant
  MIC: ≤ 0.002 µg/mL
[9]; ATCC6633, drug alone, read-out: MIC alone
  MIC: 0.031 µg/mL
[10]; GN346, Concomitant (BIPM:SM = 1:1), read-out: MIC concomitant
  MIC: 0.125 µg/mL
[10]; GN346, drug alone, read-out: MIC alone
  MIC: 0.25 µg/mL
[11]; X100, Concomitant (BIPM:SM = 1:1), read-out: MIC concomitant
  MIC: 0.063 µg/mL
[11]; X100, drug alone, read-out: MIC alone
  MIC: 0.063 µg/mL
[12]; GN6473, Concomitant (BIPM:SM = 1:1), read-out: MIC concomitant
  MIC: 0.125 µg/mL
[12]; GN6473, drug alone, read-out: MIC alone
  MIC: 0.125 µg/mL
[13]; IID1275, Concomitant (BIPM:SM = 1:1), read-out: MIC concomitant
  MIC: > 32 µg/mL
[13]; IID1275, drug alone, read-out: MIC alone
  MIC: > 32 µg/mL

From patent US20090018111A1, “Novel Antimicrobial Medicament” (priority 2004, published 2009)
